Here are results for 1 compound from PMC10767194 (The Journal of Biological Chemistry, 2023).

Read-outs that look alike come from different tables or passages of the source.

The target in assay [1] is T1, Cdk13/CycK (Homo sapiens, UniProt Q14004).
T1 construct: The kinase domain of human Cdk13 (residues 694–1039, UniProt Q14004); made in house; host or cells: Sf9 insect cells, co-expressed with CAK1
The assay can be described thus: radioactive in vitro kinase assay, Cdk13/CycK. It counts as biochemical. The procedure: To a concentration of 0.2 μM kinase and 0.2 mM ATP, a compound concentration ranging from 0.1 nM to 1 mM was applied. Kinase reactions were started by the addition of 100 μM CTD peptide containing three hepta-repeats continuously prephosphorylated at position S7 (pS7-CTD[3]) and terminated after 60 min incubation time. In vitro IC50-values were determined by applying a sigmoidal fit to dose-response measurements (Fig. 1A). […] The Michaelis–Menten constants (KM) for ATP were determined as 17.5 μM for Cdk12/CycK and 12.6 μM for Cdk13/CycK, respectively. […] These values are in accordance with the values derived from sigmoidal curve fitting.
Radioactive kinase activity assays were performed in a total volume of 15 μl per sample in kinase assay buffer (50 mM Hepes/pH 7.6, 34 mM KCl, 7 mM MgCl2, 5 mM β-glycerol phosphate, and 2.5 mM dithioerythritol). […] Radioactive counts were determined in a Beckman Liquid Scintillation Counter (Beckman Coulter) for 1 min. […] IC50 values were extracted from triplicate measurements by sigmoidal curve fitting using DataGraph (v. 5.0; https://www.visualdatatools.com/DataGraph/) or were determined by applying the Morrison quadratic equation for tight binding inhibitors using GraphPad Prism 10 (https://www.graphpad.com/) ([40]).

Another assay has as its system T2, Cdk4/CycD3.
T2 construct: GST (of the complex); made in house; host or cells: Sf9 insect cells
Briefly: radioactive in vitro kinase assay, Cdk4/CycD3. It counts as biochemical, human. The following applies: 0, 0.1, 1, 10, 100 μM compound, 0.2 μM kinase, 0.2 mM ATP. The procedure:
(§1) Radioactive kinase activity assays were performed in a total volume of 15 μl per sample in kinase assay buffer (50 mM Hepes/pH 7.6, 34 mM KCl, 7 mM MgCl2, 5 mM β-glycerol phosphate, and 2.5 mM dithioerythritol). Preincubation of 0.2 μM or 0.02 μM recombinant protein kinase with indicated concentrations of respective inhibitor and 0.2 to 2 mM ATP containing 0.45 mCi [^32P]-γ-ATP/ml (PerkinElmer) was carried out for 5 min. Kinase reactions were started by addition of substrate protein (10 μM GST-Rb1 for Cdk4/CycD3, 10 μM GST-CTD[52] for Cdk7/CycH/MAT1, 50 μM His-c-Myc for all others) and incubated for 20 min at 30 °C in a shaking incubator at 300 rpm. For pS7-CTD[3] peptide, the substrate concentration was increased to 100 μM and assays were performed for 60 min. Reactions were terminated by the addition of EDTA to a final concentration of 50 mM. […] Radioactive counts were determined in a Beckman Liquid Scintillation Counter (Beckman Coulter) for 1 min. […] IC50 values were extracted from triplicate measurements by sigmoidal curve fitting using DataGraph (v. 5.0; https://www.visualdatatools.com/DataGraph/) or were determined by applying the Morrison quadratic equation for tight binding inhibitors using GraphPad Prism 10 (https://www.graphpad.com/) ([40]).

The next assay has as its system T3, DYRK1A.
T3 construct: The kinase domain of human DYRK1A (residues 126–485, UniProt Q13627); made in house; host or cells: E. coli BL21 pLysS
Briefly: radioactive in vitro kinase assay, DYRK1A. The class given is biochemical, human. The following applies: 0, 0.1, 1, 10, 100 μM compound, 0.2 μM kinase, 0.2 mM ATP. The procedure: as §1

The test system of the next assay is T4, HIPK3.
T4 construct: human HIPK3 (residues 159–562, UniProt Q9H422); made in house; host or cells: Sf9 insect cells
Briefly: radioactive in vitro kinase assay, HIPK3. It counts as biochemical, human. The conditions noted are these: 0, 0.1, 1, 10, 100 μM compound, 0.2 μM kinase, 0.2 mM ATP. The procedure: as §1

In assay [2] the target is T1, Cdk13/CycK. The assay can be described thus: SPR single-cycle kinetics, active Cdk13*/CycK. The conditions noted are these: T-loop phosphorylated active kinase (CAK1 coexpressed), 1:1 binding model. The procedure: The protein kinases were immobilized on a CM5 chip using the amine-coupling method. […] The fully active and T-loop phosphorylated kinase preparations of Cdk12∗/CycK and Cdk13∗/CycK were obtained through coexpression with Cdk-activating kinase 1 (CAK1) from Saccharomyces cerevisiae. […] For comparison, we measured the affinity of NVP-2 for active kinases Cdk12∗/CycK and its proposed target Cdk9/CycT1 by SPR.
SPR experiments were conducted on a Biacore 8K (Cytiva) device. The system was equilibrated in running buffer (20 mM Tris pH 8, 150 mM NaCl, 1 mM tris(2-carboxyethyl)phosphine, 0.1 mM MgCl2, 0.05% Tween20, and 2% DMSO) at 25 °C. Flow cell 1 and 2 surfaces of a CM5 sensor chip (Cytiva) were conditioned with 50 mM NaOH at a flow rate of 30 μl/min for 15 s and subsequently activated with a 1:1 mix of 0.1 M N-hydroxysuccinimide (NHS) and 0.1 M 3-(N,N-dimethylamino) propyl-N-ethyl-carbodiimide (EDC) at a flow rate of 10 μl/min for 7 min. The flow system was washed with 1 M enthanolamine (pH 8). WT and mutant kinases Cdk12/CycK, Cdk13/CycK and Cdk9/CycT1 were diluted in Mes (pH 6.5) to a final concentration of 2 μM. Immobilization of kinases was performed in running buffer without DMSO using the amine coupling method on flow cell 2 surface for 160 s at a flow rate of 10 μl/min. Free binding sites were blocked with 1 M ethanolamine pH 8.0 (10 μl/min) for 7 min. […]

T1 sequence (Q14004 694-1039): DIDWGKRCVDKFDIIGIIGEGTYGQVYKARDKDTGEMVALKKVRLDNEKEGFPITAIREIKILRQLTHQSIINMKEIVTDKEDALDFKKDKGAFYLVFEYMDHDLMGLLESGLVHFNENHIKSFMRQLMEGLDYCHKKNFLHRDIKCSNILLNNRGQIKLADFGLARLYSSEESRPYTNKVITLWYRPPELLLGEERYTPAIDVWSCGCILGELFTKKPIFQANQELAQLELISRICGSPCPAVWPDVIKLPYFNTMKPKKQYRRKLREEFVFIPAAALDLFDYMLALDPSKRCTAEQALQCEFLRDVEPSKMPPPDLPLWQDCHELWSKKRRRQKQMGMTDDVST
T1 sequence (O75909 1-267 partner limits assumed): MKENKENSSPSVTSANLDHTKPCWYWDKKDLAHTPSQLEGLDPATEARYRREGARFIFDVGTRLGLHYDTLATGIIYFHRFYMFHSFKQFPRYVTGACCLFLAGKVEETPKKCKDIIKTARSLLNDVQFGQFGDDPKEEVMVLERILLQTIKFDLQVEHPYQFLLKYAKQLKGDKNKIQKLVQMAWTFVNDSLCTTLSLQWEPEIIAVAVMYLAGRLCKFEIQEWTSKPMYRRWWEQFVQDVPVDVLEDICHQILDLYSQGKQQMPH

Turning to `Cn1cc(-n2cnc3c(NCc4nc5cc(Cl)c(Cl)cc5[nH]4)nc(N4CCOCC4)nc32)cn1` [SR-4835], the IC50 at Cdk13/CycK [1] (0.2 μM and 0.02 μM kinase, c-Myc substrate, Morrison quadratic equation fit, read-out: IC50 Cdk13/CycK, Morrison quadratic equation) is 366 to 400 nM; at Cdk13/CycK [1] (0.2 μM kinase, 0.2 mM ATP, 100 μM pS7-CTD[3], 60 min, sigmoidal fit, read-out: IC50 Cdk13/CycK on pS7-CTD[3]), 366 nM. Further, the “inhibition of Cdk4/CycD3 activity” value in the assay with Cdk4/CycD3 was “minimal decrease in kinase activity”. Also, the “inhibition of DYRK1A activity” value with DYRK1A is “not inhibited”. The “inhibition of HIPK3 activity” value in the assay on HIPK3 is on record as “not inhibited”. Also, on Cdk13/CycK [2], binding was put at a Kd of 168 nM.
